Experimental findings from patent US8513248B2, “5,6,7,8-tetrahydroimidazo[1,2-A]pyrazine derivatives as P2X7 modulators” (Glaxo Group Limited, priority 2009, dated 2013) are described below.

Counter-ions that a name gives are not always drawn.

For this assay, the target named is T1, human recombinant P2X7 receptors (Homo sapiens, UniProt Q99572).
T1 construct: expressed in transfected cells
T1 sequence (Q99572 1-595): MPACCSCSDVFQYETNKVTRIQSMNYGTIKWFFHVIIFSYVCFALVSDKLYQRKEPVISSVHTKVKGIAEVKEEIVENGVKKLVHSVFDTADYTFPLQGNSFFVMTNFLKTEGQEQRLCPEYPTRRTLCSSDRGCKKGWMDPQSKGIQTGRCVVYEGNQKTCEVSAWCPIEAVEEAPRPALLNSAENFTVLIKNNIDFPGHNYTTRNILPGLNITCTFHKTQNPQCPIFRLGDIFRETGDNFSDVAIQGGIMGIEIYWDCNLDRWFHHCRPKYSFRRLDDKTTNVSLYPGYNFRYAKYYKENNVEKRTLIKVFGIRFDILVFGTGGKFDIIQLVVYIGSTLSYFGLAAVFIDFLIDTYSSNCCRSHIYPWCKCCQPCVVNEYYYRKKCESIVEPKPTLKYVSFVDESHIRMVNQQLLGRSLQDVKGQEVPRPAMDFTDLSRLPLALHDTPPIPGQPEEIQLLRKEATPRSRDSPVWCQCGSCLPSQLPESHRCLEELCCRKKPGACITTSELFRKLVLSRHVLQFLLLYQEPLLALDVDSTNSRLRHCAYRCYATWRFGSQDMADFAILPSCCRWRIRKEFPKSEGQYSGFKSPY
Put plainly: Ethidium Accumulation Assay 1. The class given is cell-based. Particulars: HEK293 cells stably expressing human recombinant P2X7; 1 mM ATP; ethidium 100 μM; read-out: Assay 1 (antagonist pIC50 for blocking ATP responses, ethidium accumulation) (converted). How it is done:
Studies were performed using NaCl assay buffer of the following composition: 140 mM NaCl, 10 mM HEPES [4-(2-hydroxyethyl)-1-piperazine-1-ethanesulfonic acid], 5 mM N-methyl-D-glucamine, 5.6 mM KCl, 10 mM D-glucose, 0.5 mM CaCl2 (pH 7.4).
Human Embryonic Kidney (HEK) 293 cells, stably expressing human recombinant P2X7 receptors, were grown in poly-D-lysine pretreated 96 well plates for 18-24 hours. […] The cells were washed twice with 350 μl of the assay buffer, before addition of 50 μl of the assay buffer containing the putative P2X7 receptor antagonist compound. (A small amount of dimethyl sulfoxide, for initially dissolving the compound, is optionally used and present in this […] test compound sample.) The cells were then incubated at room temperature (19-21° C.) for 30 min before addition of ATP and ethidium (100 μM final assay concentration). The ATP concentration was chosen to be close to the EC80 for the receptor type and was 1 mM for studies on the human P2X7 receptor. Incubations were continued for 8 or 16 min and were terminated by addition of 25 μl of 1.3M sucrose containing 4 mM of the P2X7 receptor antagonist Reactive Black 5 (Aldrich). […] Antagonist pIC50 values for blocking ATP responses were determined using iterative curve fitting techniques.
Regarding `O=C(c1cccc(C(F)(F)F)c1Cl)N1CCn2c(nc(C(F)(F)F)c2-c2ccc(F)cc2)C1` [Example 35, 7-{[2-chloro-3-(trifluoromethyl)phenyl]carbonyl}-3-(4-fluorophenyl)-2-(trifluoromethyl)-5,6,7,8-tetrahydroimidazo[1,2-a]pyrazine], the IC50 is < 100 nM.
To `O=C(c1ccc(Cl)cc1Cl)N1CCn2c(nc(Cl)c2Cl)C1` [Example 29, 2,3-dichloro-7-[(2,4-dichlorophenyl)carbonyl]-5,6,7,8-tetrahydroimidazo[1,2-a]pyrazine] belongs < 100 nM.
Take `O=C(c1ccc(Cl)cc1Cl)N1CCn2cc(C(F)(F)F)nc2C1` [Example 3, 7-[(2,4-Dichlorophenyl)carbonyl]-2-(trifluoromethyl)-5,6,7,8-tetrahydroimidazo[1,2-a]pyrazine]: the IC50 is < 1000 nM.
To `O=C(c1cccc(C(F)(F)F)c1Cl)N1CCn2c(I)cnc2C1` [Example 21, 7-{[2-chloro-3-(trifluoromethyl)phenyl]carbonyl}-3-iodo-5,6,7,8-tetrahydroimidazo[1,2-a]pyrazine] belongs < 10 nM.
To `O=C(c1ccc(F)cc1Cl)N1CCn2c(-c3ccccc3)cnc2C1` [Example 10, 7-[(2-chloro-4-fluorophenyl)carbonyl]-3-phenyl-5,6,7,8-tetrahydroimidazo[1,2-a]pyrazine hydrochloride] belongs < 100 nM; to `O=C(c1cccc(C(F)(F)F)c1Cl)N1CCn2c(-c3cccc(C(F)(F)F)c3Cl)cnc2C1` [Example 24, 3-[2-chloro-3-(trifluoromethyl)phenyl]-7-{[2-chloro-3-(trifluoromethyl)phenyl]carbonyl}-5,6,7,8-tetrahydroimidazo[1,2-a]pyrazine hydrochloride], < 1000 nM.
As to `O=C(c1ccc(F)cc1Cl)N1CCn2c(nc(C(F)(F)F)c2Br)C1` [Example 32, 3-Bromo-7-[(2-chloro-4-fluorophenyl)carbonyl]-2-(trifluoromethyl)-5,6,7,8-tetrahydroimidazo[1,2-a]pyrazine], the IC50 is < 100 nM.
The result for `Cc1ccccc1-c1cnc2n1CCN(C(=O)c1cccc(C(F)(F)F)c1Cl)C2` [Example 28, 7-{[2-Chloro-3-(trifluoromethyl)phenyl]carbonyl}-3-(2-methylphenyl)-5,6,7,8-tetrahydroimidazo[1,2-a]pyrazine hydrochloride] reads < 100 nM; that for `CCc1cn2c(n1)CN(C(=O)c1cccc(C(F)(F)F)c1Cl)CC2` [Example 6, 7-{[2-chloro-3-(trifluoromethyl)phenyl]carbonyl}-2-ethyl-5,6,7,8-tetrahydroimidazo[1,2-a]pyrazine], < 100 nM.
Regarding `O=C(c1ccc(Cl)cc1Cl)N1CCn2c(nc(C(F)(F)F)c2-c2ccc(F)cc2)C1` [Example 36, 7-[(2,4-dichlorophenyl)carbonyl]-3-(4-fluorophenyl)-2-(trifluoromethyl)-5,6,7,8-tetrahydroimidazo[1,2-a]pyrazine], the IC50 is < 501 nM.
The result for `O=C(c1cccc(C(F)(F)F)c1Cl)N1CCn2c(-c3ccccn3)cnc2C1` [Example 16, a hydrochloride (n•HCl) salt of 7-{[2-chloro-3-(trifluoromethyl)phenyl]carbonyl}-3-(2-pyridinyl)-5,6,7,8-tetrahydroimidazo[1,2-a]pyrazine] reads < 10 nM.
To `Cc1cn2c(n1)CN(C(=O)c1cccc(Cl)c1Cl)CC2` [Example 12, 7-[(2,3-dichlorophenyl)carbonyl]-2-methyl-5,6,7,8-tetrahydroimidazo[1,2-a]pyrazine] belongs < 501 nM.
